Experimental findings from patent US8741836B2, “Polypeptides” (Novo Nordisk A/S, priority 2011, dated 2014) are described below.

Starred links: 1 amine or outer side, 2 acyl side, 3 side chain; linkers in the order of their positions; H or OH if unused. Positions of bridges follow the written chain, without caps; N, C: chain ends. Residues, ends and D or L forms follow the SMILES beside them. Groups on a side chain read outwards from the residue. *: point of attachment. C20 diacid = O=C(O)CCCCCCCCCCCCCCCCCCC(=O)*; C18 diacid = O=C(O)CCCCCCCCCCCCCCCCC(=O)*; γGlu = O=C(O)[C@H](CCC(=O)[*:2])N[*:1]; AEEA = NCCOCCOCC(=O)O Bounds are passed on as bounds.

In data set [1] the test system is ad libitum fed rat. Kind of data set: Assay (I) efficacy testing on appetite (food intake) using an ad libitum fed rat model. The class given is in vivo, Sprague Dawley (SD) rats. The settings on record: 3 nmol/kg. From the text:
In the following examples reference is made to the following Assays: • Assay (I)—Experimental protocol for efficacy testing on appetite using an ad libitum fed rat model • ASSAY (II)a—Functional assay—Human calcitonin and amylin receptor assay • ASSAY (II)b—Functional assay—Rat calcitonin and rat amylin receptor assays • ASSAY (III)—ThT fibrillation assays for the assessment of physical stability of protein formulations • ASSAY (IV)—Determination of solubility • ASSAY (V)—Determination of binding to the human amylin receptor • ASSAY (VI)—Determination of the binding to the rat amylin receptor • ASSAY (VII)—Determination of binding to the human calcitonin receptor • ASSAY (VIII)—Determination of binding to the rat calcitonin receptor • ASSAY (IX)—pK—Determination of T½ in mini-pig • ASSAY (X)—pK—Determination of T½ in rat Assay (I)—Experimental protocol for Efficacy Testing on Appetite Using an Ad Libitum Fed Rat Model
Sprague Dawley (SD) rats from Taconic Europe, Denmark are used for the experiments. The rats have a body weight 200-250 g at the start of experiment. The rats arrive at least 10-14 days before start of experiment to allow acclimatization to experimental settings. During this period the animals are handled at least 2 times. After arrival rats are housed individually for one week in a reversed light/dark phase (meaning that lights are off during daytime and on during nighttime) […]. Since rats are normally active and eat their major part of their daily food intake during the dark period, rats are dosed in the morning right before lights are turned off. This set-up results in the lowest data variation and highest test sensitivity. The experiment is conducted in the rats' home cages and rats have free access to food and water throughout the acclimatization period and the experiment period. Each dose of derivative is tested in a group of 5-8 rats. A vehicle group of 6-8 rats is included in each set of testing. Rats are dosed once according to body weight with a 0.01-3 mg/kg solution administered intraperitoneally (ip), orally (po) or subcutaneously (sc). The time of dosing is recorded for each group. After dosing, the rats are returned to their home cages, where they then have access to food and water. The food consumption is recorded individually continuously by on-line registration or manually every hour for 7 hours, and then after 24 h and sometimes 48 h. At the end of the experimental session, the animals are euthanised.
The individual data are recorded in Microsoft excel sheets. Outliers are excluded after applying the Grubbs statistical evaluation test for outliers, and the result is presented graphically using the GraphPad Prism program.

The nature of data set [2]: Assay (III) ThT fibrillation assay for physical stability. The class given is physicochemical. The settings on record: for ThT pH 4.0 lag time: pH 4.0, ThT fibrillation assay. In outline:
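Freshly prepared, pH-adjusted formulations with 1 μM ThT incubated at 37 °C under 960 rpm orbital shaking (1 mm), fluorescence (ex 444, em 485 nm) read every 20 min. […] Peptide content before and after measured by reverse-phase HPLC against pramlintide standard.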

`CC[C@H](C)[C@H](NC(=O)[C@@H]1CCCN1C(=O)CNC(=O)[C@H](Cc1ccccc1)NC(=O)[C@H](CC(N)=O)NC(=O)[C@H](CC(N)=O)NC(=O)[C@H](CO)NC(=O)[C@H](CO)NC(=O)[C@H](Cc1c[nH]cn1)NC(=O)[C@H](Cc1c[nH]cn1)NC(=O)[C@H](CC(C)C)NC(=O)[C@H](Cc1ccccc1)NC(=O)[C@H](CCC(=O)O)NC(=O)[C@H](C)NC(=O)[C@H](CC(C)C)NC(=O)[C@H](CCCNC(=N)N)NC(=O)[C@H](CCC(N)=O)NC(=O)[C@@H](NC(=O)[C@H](C)NC(=O)[C@@H]1CSSC[C@H](NC(=O)[C@H](CCCCN)NC(=O)[C@H](CCC(=O)O)NC(=O)CC[C@H](NC(=O)CCCCCCCCCCCCCCCCCCC(=O)O)C(=O)O)C(=O)N[C@@H](CC(N)=O)C(=O)N[C@@H]([C@@H](C)O)C(=O)N[C@@H](C)C(=O)N[C@@H]([C@@H](C)O)C(=O)N1)[C@@H](C)O)C(=O)N[C@@H](CC(C)C)C(=O)N1CCC[C@H]1C(=O)N1CCC[C@H]1C(=O)N[C@H](C(=O)N[C@@H](CC(N)=O)C(=O)N[C@H](C(=O)NCC(=O)N[C@@H](CO)C(=O)N[C@@H](CC(N)=O)C(=O)N[C@H](C(=O)N[C@@H](Cc1ccc(O)cc1)C(N)=O)[C@@H](C)O)C(C)C)[C@@H](C)O` [Example 26, N-alpha-[(S)-4-Carboxy-4-(19-carboxynonadecanoylamino)butyryl]-Glu-[Glu14,His17]-pramlintide] ({C20 diacid-γGlu}-EKCNTATCATQRLAEFLHHSSNNFGPILPPTNVGSNTY-NH2; disulfide 3-8 (inferred)): the “Food intake reduction 0-24 h 3 nmol/kg (%)” value in data set [1] (0-24 h) came out at 46%. In addition, the “Food intake reduction 24-48 h 3 nmol/kg (%)” value in data set [1] (24-48 h) is listed as 39%. Consider `CC[C@H](C)[C@H](NC(=O)[C@@H]1CCCN1C(=O)CNC(=O)[C@H](Cc1ccccc1)NC(=O)[C@H](CC(N)=O)NC(=O)[C@H](CC(N)=O)NC(=O)[C@H](CO)NC(=O)[C@H](CO)NC(=O)[C@H](Cc1c[nH]cn1)NC(=O)[C@H](Cc1c[nH]cn1)NC(=O)[C@H](CC(C)C)NC(=O)[C@H](Cc1ccccc1)NC(=O)[C@H](CCC(=O)O)NC(=O)[C@H](C)NC(=O)[C@H](CC(C)C)NC(=O)[C@H](CCCNC(=N)N)NC(=O)[C@H](CCC(N)=O)NC(=O)[C@@H](NC(=O)[C@H](C)NC(=O)[C@@H]1CSSC[C@H](NC(=O)[C@H](CCCCN)NC(=O)[C@H](Cc2c[nH]cn2)NC(=O)[C@H](Cc2c[nH]cn2)NC(=O)CC[C@H](NC(=O)CCCCCCCCCCCCCCCCCCC(=O)O)C(=O)O)C(=O)N[C@@H](CC(N)=O)C(=O)N[C@@H]([C@@H](C)O)C(=O)N[C@@H](C)C(=O)N[C@@H]([C@@H](C)O)C(=O)N1)[C@@H](C)O)C(=O)N[C@@H](CC(C)C)C(=O)N1CCC[C@H]1C(=O)N1CCC[C@H]1C(=O)N[C@H](C(=O)N[C@@H](CC(N)=O)C(=O)N[C@H](C(=O)NCC(=O)N[C@@H](CO)C(=O)N[C@@H](Cc1c[nH]cn1)C(=O)N[C@H](C(=O)N[C@@H](Cc1ccc(O)cc1)C(N)=O)[C@@H](C)O)C(C)C)[C@@H](C)O` [Example 67, N-alpha-[(S)-4-Carboxy-4-(19-carboxynonadecanoylamino)butyryl]-His-His-[Glu14,His17,His35]-pramlintide] ({C20 diacid-γGlu}-HHKCNTATCATQRLAEFLHHSSNNFGPILPPTNVGSHTY-NH2; disulfide 4-9 (inferred)), for which the “ThT pH 4.0 lag time” value in data set [2] was greater than 45 h. The same measure, in the same setting: the same measure for `CC[C@H](C)[C@H](NC(=O)[C@@H]1CCCN1C(=O)CNC(=O)[C@H](Cc1ccccc1)NC(=O)[C@H](CC(N)=O)NC(=O)[C@H](CC(N)=O)NC(=O)[C@H](CO)NC(=O)[C@H](CO)NC(=O)[C@H](CCCNC(=N)N)NC(=O)[C@H](Cc1c[nH]cn1)NC(=O)[C@H](CC(C)C)NC(=O)[C@H](Cc1ccccc1)NC(=O)[C@H](CCC(=O)O)NC(=O)[C@H](C)NC(=O)[C@H](CC(C)C)NC(=O)[C@H](CCCNC(=N)N)NC(=O)[C@H](CCC(N)=O)NC(=O)[C@@H](NC(=O)[C@H](C)NC(=O)[C@@H]1CSSC[C@H](NC(=O)[C@H](CCCCN)NC(=O)CC[C@H](NC(=O)CCCCCCCCCCCCCCCCCCC(=O)O)C(=O)O)C(=O)N[C@@H](CC(N)=O)C(=O)N[C@@H]([C@@H](C)O)C(=O)N[C@@H](C)C(=O)N[C@@H]([C@@H](C)O)C(=O)N1)[C@@H](C)O)C(=O)N[C@@H](CC(C)C)C(=O)N1CCC[C@H]1C(=O)N1CCC[C@H]1C(=O)N[C@H](C(=O)N[C@@H](CC(N)=O)C(=O)N[C@H](C(=O)NCC(=O)N[C@@H](CO)C(=O)N[C@@H](Cc1c[nH]cn1)C(=O)N[C@H](C(=O)N[C@@H](Cc1ccc(O)cc1)C(N)=O)[C@@H](C)O)C(C)C)[C@@H](C)O` [Example 78, N-alpha-[(S)-4-Carboxy-4-(19-carboxynonadecanoylamino)butyryl]-[Glu14,His17,Arg18,His35]-pramlintide] ({C20 diacid-γGlu}-KCNTATCATQRLAEFLHRSSNNFGPILPPTNVGSHTY-NH2; disulfide 2-7 (inferred)): greater than 45 h. For `CC[C@H](C)[C@H](NC(=O)[C@@H]1CCCN1C(=O)CNC(=O)[C@H](Cc1ccccc1)NC(=O)[C@H](CC(N)=O)NC(=O)[C@H](CO)NC(=O)[C@H](CO)NC(=O)[C@H](CO)NC(=O)[C@H](Cc1c[nH]cn1)NC(=O)[C@H](CCCCNC(=O)COCCOCCNC(=O)COCCOCCNC(=O)CC[C@H](NC(=O)CCCCCCCCCCCCCCCCC(=O)O)C(=O)O)NC(=O)[C@H](CC(C)C)NC(=O)[C@H](Cc1ccccc1)NC(=O)[C@H](CCC(=O)O)NC(=O)[C@H](C)NC(=O)[C@H](CC(C)C)NC(=O)[C@H](CCCNC(=N)N)NC(=O)[C@H](CCC(N)=O)NC(=O)[C@@H](NC(=O)[C@H](C)NC(=O)[C@@H]1CSSC[C@H](NC(=O)[C@@H](N)CCCCN)C(=O)N[C@@H](CC(N)=O)C(=O)N[C@@H]([C@@H](C)O)C(=O)N[C@@H](C)C(=O)N[C@@H]([C@@H](C)O)C(=O)N1)[C@@H](C)O)C(=O)N[C@@H](CC(C)C)C(=O)N1CCC[C@H]1C(=O)N1CCC[C@H]1C(=O)N[C@H](C(=O)N[C@@H](CC(N)=O)C(=O)N[C@H](C(=O)NCC(=O)N[C@@H](CO)C(=O)N[C@@H](CCC(=O)O)C(=O)N[C@H](C(=O)N[C@@H](Cc1ccc(O)cc1)C(N)=O)[C@@H](C)O)C(C)C)[C@@H](C)O` [Example 83, N-epsilon17-[2-(2-{2-[2-(2-{2-[(S)-4-Carboxy-4-(17-carboxyheptadecanoylamino)butyrylamino]ethoxy}ethoxy)acetylamino]ethoxy}ethoxy)acetyl]-[Glu14,Lys17,Ser21,Glu35]-pramlintide] (H-KCNTATCATQRLAEFLK([AEEA-AEEA-γGlu-C18 diacid])HSSSNFGPILPPTNVGSETY-NH2; disulfide 2-7 (inferred); N-terminus assumed), the “ThT pH 4.0 lag time (physical stability in fibrillogenesis assay)” value in data set [2] (pH 4.0) is given as greater than 45 h. Further, the “ThT pH 4.0 lag time” value in data set [2] is listed as greater than 45 h.

For `CC[C@H](C)[C@H](NC(=O)[C@@H]1CCCN1C(=O)CNC(=O)[C@H](Cc1ccccc1)NC(=O)[C@H](CC(N)=O)NC(=O)[C@H](CC(N)=O)NC(=O)[C@H](CO)NC(=O)[C@H](CO)NC(=O)[C@H](Cc1c[nH]cn1)NC(=O)[C@H](CCCNC(=N)N)NC(=O)[C@H](CC(C)C)NC(=O)[C@H](Cc1ccccc1)NC(=O)[C@H](CCC(=O)O)NC(=O)[C@H](C)NC(=O)[C@H](CC(C)C)NC(=O)[C@H](CCCNC(=N)N)NC(=O)[C@H](CCC(N)=O)NC(=O)[C@@H](NC(=O)[C@H](C)NC(=O)[C@@H]1CSSC[C@H](NC(=O)[C@H](CCCNC(=N)N)NC(=O)[C@H](CCC(=O)O)NC(=O)CC[C@H](NC(=O)CCCCCCCCCCCCCCCCCCC(=O)O)C(=O)O)C(=O)N[C@@H](CC(N)=O)C(=O)N[C@@H]([C@@H](C)O)C(=O)N[C@@H](C)C(=O)N[C@@H]([C@@H](C)O)C(=O)N1)[C@@H](C)O)C(=O)N[C@@H](CC(C)C)C(=O)N1CCC[C@H]1C(=O)N1CCC[C@H]1C(=O)N[C@H](C(=O)N[C@@H](CC(N)=O)C(=O)N[C@H](C(=O)NCC(=O)N[C@@H](CO)C(=O)N[C@@H](CC(N)=O)C(=O)N[C@H](C(=O)N1CCC[C@H]1C(N)=O)[C@@H](C)O)C(C)C)[C@@H](C)O` [compound 156] ({C20 diacid-γGlu}-ERCNTATCATQRLAEFLRHSSNNFGPILPPTNVGSNTP-NH2; disulfide 3-8 (inferred)), the “ThT pH 4.0 lag time” value in data set [2] was greater than 45 h.
